One experiment deals with TNFα trimer (Homo sapiens, UniProt P01375). The experiment can be described thus: SPR binding kinetics of compounds to TNFα trimer. The settings on record: for Kd: class symbols. The protocol: Streptavidin 100 μg/mL Streptavidin (Invitrogen Cat #: 434302) diluted in 10 mM sodium acetate, pH 4.5) was immobilized to both the reference and active surfaces as described in Example 51. The surfaces were conditioned with three injections of running Buffer (10 mM HEPES, 150 mMNaCl, 0.05% T20, pH 7.5, 2% DMSO) at a flow rate of 10 μL/min, Contact time: 60 s. Flow rate: 10 μL/min. The active surface was treated with biotinylated linked TNFα trimer 20 μg/mL diluted in running buffer at a flow rate of 5 μL/min contact time: 600 s, yielding a final response of ˜3000 RU. Example compounds were then serially diluted 1:1 in running buffer (10 mM HEPES, 150 mM NaCl, 0.05% T20, pH 7.5, 2% DMSO) from 30 uM to 937.5 nM and flowed over the active and reference surfaces from lowest concentration to greatest concentration in the single-cycle kinetics format, and then allowed to dissociate in running buffer for 7200 s, at 30 μL/min. Sensorgrams were solvent corrected, double-referenced, and the data fitted and analyzed in Biacore Insight Evaluation Software Version 3.0.11.15423.
For orientation: SPR reads the build-up and loss of mass on a sensor chip optically.

The next experiment relates to THP-1 cells. The experiment is described as follows: Compound mediated uptake of TNFα-pHrodo in THP-1 cells (flow cytometry). Also noted: key to Uptake in THP1 cells (run) 2 / Uptake in THP1 cells (run) 3 / Uptake in THP1 cells (run) 4: + = ΔMFI less than that of I-17; ++ = ΔMFI ≈ to that of I-17; +++ = ΔMFI greater than that of I-17. The settings on record: ΔMFI compared with I-17, uptake at 10 μM. The format is cell-based. The protocol:
THP-1 cells, a monocytic leukemia cell line that endogenously express folate receptor beta, were used as a model system to measure example compound stimulated uptake of in-house produced TNFα conjugated to the pH sensitive fluorescent dye pHrodo green (ThermoFisher Scientific #P35369).
THP-1 cells were maintained in RPMI (Gibco #61870143) with 10% v/v FBS (VWR #89510-188) with 2 mM L-alanyl-L-glutamine dipeptide, 100 units/ml penicillin and 100 μg/ml streptomycin (Gibco #15140148). Cells were pelleted, resuspended in folate-free RPMI (Gibco #27016021) and seeded at 50,000 cells per well of a 96 well plate. Example compound was added to each well as a log 2 dilution series ranging from 20 μM to 125 nM final concentration. Cells were incubated for 24 hrs and washed/resuspended in phosphate buffered saline (pH 7.4) with 1% w/v BSA. Uptake was measured using a Novocyte Advanteon Flow Cytometer (Agilent Technologies) with the […] and FITC detection configuration.
On the technique in general: Flow cytometry measures light scatter and fluorescence of single cells or particles in a stream.

In another experiment the target is FOLR2 (Homo sapiens (Human), UniProt P14207). The experiment can be described thus: SPR binding kinetics of compounds to folate receptor (FOLR2 immobilized on CM5 chip). Here is the method:
A Biacore 8K+ was used to measure the association and dissociation rates of example compounds to FOLR2 (Acro Biosystems, Cat: F02-H5223-100 μg). Briefly, FOLR2 was reconstituted according to the manufacture's instructions to 200 μg/mL. Both the active and reference surfaces of a Cytiva CM5 Series S Sensor Chip were activated with a 1:1 mixture of 400 mM EDC and 100 mM NHS for 420 s at 10 μL/min. 25 μg/mL FOLR2 diluted in Sodium Acetate pH 5.5 was injected on the active channel (Flow Cell 2) for 420 s at 10p/min. Both the reference and active surfaces were then capped with 1M ethanolamine, pH 8.5 for 420 s, achieving an immobilization level of ˜4200 RU. Example compounds were serially diluted 1:1 in running buffer (10 mM HEPES, 150 mM NaCl, 0.05% T20, pH 7.5, 2% DMSO) from 100 nM to 3.125 nM and flowed over the active and reference surfaces for 120 s, and then allowed to dissociate in running buffer for 600 s, at 30 uL/min. The FOLR2 immobilized active surface and the reference surface were regenerated with a 30 s pulse of Sodium Acetate pH 5.5 at 30 μL/min. Sensorgrams were solvent corrected, double-referenced, and the data fitted and analyzed in Biacore Insight Evaluation Software Version 3.0.11.15423.

The next experiment has as its target TNFα (Homo sapiens (Human), UniProt P01375). The experiment can be described thus: TNFα binding assay (time-resolved FRET, biotinylated TNFα). The settings on record: 1 nM biotinylated TNFα, 80 nM probe, 16 hr incubation; read-out: TNF-HTRF-biotin. In a few lines: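 Time-resolved FRET displacement of 80 nM acceptor probe from 1 nM biotinylated TNFα with 0.5 nM streptavidin-Tb in 20 mM Hepes pH 7.5, 10 mM MgCl2, 0.015% Tween-20, 0.05 mg/ml BSA, 2% DMSO. Read (ex 340, em 490/520 nm) after 16 hr. Duplicate dose responses normalized to DMSO and 100 nM reference inhibitor; IC50 by 4-parameter fit.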
For orientation: Time-resolved FRET reads energy transfer from a long-lived donor to a nearby acceptor.

In experiment [1] the target is T1, folate receptor beta (Homo sapiens (Human), UniProt P14207). The experiment can be described thus: Folate receptor binding assay (fluorescence polarization). To be noted: 2.5 nM folate receptor beta, 2 nM FR-Cy probe, 2 hr incubation; read-out: FOLR2-FP. In a few lines:
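Fluorescence polarization competition with 2 nM folate–Cy5 probe and 2.5 nM receptor in 20 mM Hepes pH 7.5, 250 mM NaCl, Tween-20, 1% DMSO; 3-fold dilutions, 2 h incubation, ex 620/em 688 nm. Duplicates normalized to DMSO (high) and 1 μM folic acid (low); IC50 from 4-parameter fit.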

Experiment [2] deals with T1, folate receptor beta. The experiment is described as follows: Folate receptor SPR assay (biotinylated folate receptor beta on streptavidin chip). In kind it is binding. The settings on record: for Rmax: biotinylated folate receptor beta on streptavidin chip; for kd / Kd / kon: multi-cycle kinetics, 25° C., 1:1 model; for Kd: read-out: FOLR2Biotin - SPR Kd; for kon: pH 7.5, read-out: ka. A digest of the protocol:
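Biotinylated receptor captured on a streptavidin SPR chip; multi-cycle kinetics at 25 °C with 8 compound concentrations (2-fold dilutions) in HEPES pH 7.5, 150 mM NaCl, 0.05% Tween 20, 2% DMSO. Association 120 s, dissociation 600 s; binding parameters from 1:1 model fit.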

For experiment [3], the target named is TNFα and streptavidin immobilized FOL2R (Homo sapiens (Human), UniProt P01375+P14207). The experiment is described as follows: Ternary complex SPR assay. The settings on record: 10 nM compound, max response normalized to expected response; for TC 150 nM- tagless TNF Normalized: 150 nM untagged TNF; for TC 300 nM- tagless TNF Normalized: 300 nM untagged TNF. The format is binding. A digest of the protocol: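 Biotinylated folate receptor beta captured at ~1800 RU on a streptavidin chip; untagged TNF preincubated 6 hr at 25° C with 10 nM compound in HEPES pH 7.5, 150 mM NaCl, 0.05% Tween 20, 2% DMSO, then injected (110 s association, 600 s dissociation). Maximum response normalized to maximum expected response per compound.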

A word on the Kd: it is the equilibrium constant for the complex coming apart.

The structures appear in SMILES notation.

Sequence of TNFα and streptavidin immobilized FOL2R (P14207 17-230): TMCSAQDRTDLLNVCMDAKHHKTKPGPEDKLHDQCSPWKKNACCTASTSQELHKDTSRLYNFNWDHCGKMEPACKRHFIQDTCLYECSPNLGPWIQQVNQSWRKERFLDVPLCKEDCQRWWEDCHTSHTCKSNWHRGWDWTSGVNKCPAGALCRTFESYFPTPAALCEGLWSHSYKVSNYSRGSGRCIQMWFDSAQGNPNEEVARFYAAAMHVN
Sequence of TNFα and streptavidin immobilized FOL2R (P01375 77-233): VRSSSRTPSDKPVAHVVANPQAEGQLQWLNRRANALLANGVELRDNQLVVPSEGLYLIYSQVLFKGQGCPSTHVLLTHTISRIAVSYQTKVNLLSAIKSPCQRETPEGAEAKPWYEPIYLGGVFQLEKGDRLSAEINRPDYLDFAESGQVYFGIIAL
Sequence of TNFα trimer (P01375 77-233 limits assumed): as the sequence (P01375 77-233) above
T1 sequence (P14207 17-255): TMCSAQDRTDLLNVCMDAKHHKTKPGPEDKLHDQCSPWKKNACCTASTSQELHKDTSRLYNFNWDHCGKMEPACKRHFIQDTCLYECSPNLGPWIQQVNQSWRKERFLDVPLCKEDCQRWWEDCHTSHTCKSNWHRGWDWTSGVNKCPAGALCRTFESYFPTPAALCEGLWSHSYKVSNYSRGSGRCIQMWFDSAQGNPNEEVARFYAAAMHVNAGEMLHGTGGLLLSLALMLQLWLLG
Sequence of TNFα (P01375 77-233): as the sequence (P01375 77-233) above
Sequence of FOLR2 (P14207 17-255): as the sequence (P14207 17-255) above

`Cc1nc2cc(F)c(-c3cnc(OCCCCCNC(=O)CC[C@H](NC(=O)c4ccc(NCc5cnc6nc(N)nc(O)c6n5)cc4)C(=O)O)nc3)nc2c(N[C@H](C)c2cc(C#N)ccc2F)c1Cl` [Compound I-13, N2-(4-(((2-amino-4-hydroxypteridin-6-yl)methyl)amino)benzoyl)-N5-(5-((5-(7-chloro-8-(((R)-1-(5-cyano-2-fluorophenyl)ethyl)amino)-3-fluoro-6-methyl-1,5-naphthyridin-2-yl)pyrimidin-2-yl)oxy)pentyl)-L-glutamine] yielded a Kd at TNFα trimer of less than 0.1 µM. In the experiment on THP-1 cells, the “Uptake in THP1 cells (run) 2” value is given as “+”, the “Uptake in THP1 cells (run) 3” value is on record as “++” and the “Uptake in THP1 cells (run) 4” value is given as “++”.
On to `Cc1nc2cc(F)c(-c3cnc(OCCCCCn4cc(COCCOCCNC(=O)CC[C@H](NC(=O)c5ccc(NCc6cnc7nc(N)nc(O)c7n6)cc5)C(=O)O)nn4)nc3)nc2c(N[C@H](C)c2cc(C#N)ccc2F)c1Cl` [Compound I-16, N2-(4-(((2-amino-4-hydroxypteridin-6-yl)methyl)amino)benzoyl)-N5-(2-(2-((1-(5-((5-(7-chloro-8-((I-1-(5-cyano-2-fluorophenyl)ethyl)amino)-3-fluoro-6-methyl-1,5-naphthyridin-2-yl)pyrimidin-2-yl)oxy)pentyl)-1H-1,2,3-triazol-4-yl)methoxy)ethoxy)ethyl)-L-glutamine], for which the Kd on FOLR2 worked out at 0.0003 µM. At TNFα trimer, this molecule returned an equilibrium dissociation constant (Kd) of less than 0.1 µM. Besides, on TNFα trimer (read-out: kd), the koff is 5.81e-05 s⁻¹. Moreover, in the experiment on THP-1 cells, the “Uptake in THP1 cells (run) 2” value was “+++”, the “Uptake in THP1 cells (run) 3” value was “+++” and the “Uptake in THP1 cells (run) 4” value is reported as “++”.
`Cc1nc2cc(F)c(-c3cnc(OCCCCCn4cc(COCCOCCOCCOCCNC(=O)CC[C@H](NC(=O)c5ccc(NCc6cnc7nc(N)nc(O)c7n6)cc5)C(=O)O)nn4)nc3)nc2c(N[C@H](C)c2cc(C#N)ccc2F)c1Cl` [Compound I-17, (S)-18-(4-(((2-amino-4-hydroxypteridin-6-yl)methyl)amino)benzamido)-1-(1-(5-((5-(7-chloro-8-((I-1-(5-cyano-2-fluorophenyl)ethyl)amino)-3-fluoro-6-methyl-1,5-naphthyridin-2-yl)pyrimidin-2-yl)oxy)pentyl)-1H-1,2,3-triazol-4-yl)-15-oxo-2,5,8,11-tetraoxa-14-azanonadecan-19-oic acid]: at TNFα trimer, the dissociation constant Kd is less than 1 µM. In the experiment on THP-1 cells, the “Uptake in THP1 cells (run) 2” value is recorded as “++”, the “Uptake in THP1 cells (run) 3” value is listed as “++” and the “Uptake in THP1 cells (run) 4” value was “+++”.
`Cc1nc2ccc(-c3cnc(OCCOCCn4cc(COCCOCCOCCOCCNC(=O)CC[C@H](NC(=O)c5ccc(NCc6cnc7nc(N)nc(O)c7n6)cc5)C(=O)O)nn4)nc3)cc2n1Cc1ccccc1OC(F)F` [Compound I-24, (S)-18-(4-(((2-amino-4-hydroxypteridin-6-yl)methyl)amino)benzamido)-1-(1-(2-(2-((5-(1-(2-(difluoromethoxy)benzyl)-2-methyl-1H-benzo[d]imidazol-6-yl)pyrimidin-2-yl)oxy)ethoxy)ethyl)-1H-1,2,3-triazol-4-yl)-15-oxo-2,5,8,11-tetraoxa-14-azanonadecan-19-oic acid]: the Kd at FOLR2 is 0.0004 µM; at TNFα trimer it was less than 5 µM. Further, in the experiment on THP-1 cells, the “Uptake in THP1 cells (run) 3” value is on record as “+”. The “Uptake in THP1 cells (run) 4” value in the experiment on THP-1 cells is “+”.
Regarding `Cc1nc2cc(F)c(-c3cnc(N4CCN(C(=O)COCCn5cc(COCCOCCOCCOCCNC(=O)CCCNC(=O)c6ccc(NCc7cnc8nc(N)nc(O)c8n7)cc6)nn5)CC4)nc3)nc2c(N[C@H](C)c2cc(C#N)ccc2F)c1Cl` [Compound I-96, (R)-4-(((2-amino-4-hydroxypteridin-6-yl)methyl)amino)-N-(1-(1-(2-(2-(4-(5-(7-chloro-8-((1-(5-cyano-2-fluorophenyl)ethyl)amino)-3-fluoro-6-methyl-1,5-naphthyridin-2-yl)pyrimidin-2-yl)piperazin-1-yl)-2-oxoethoxy)ethyl)-1H-1,2,3-triazol-4-yl)-15-oxo-2,5,8,11-tetraoxa-14-azaoctadecan-18-yl)benzamide], the IC50 on TNFα was found to be 0.056 µM. Moreover, on folate receptor beta [1], the IC50 was 0.02 µM. In addition, at folate receptor beta [2], the Rmax worked out at 17.1 RU, the kd is 0.00129 s⁻¹, the equilibrium dissociation constant (Kd) came out at 0.000101 µM and the kon was 1.27e+07 M⁻¹ s⁻¹. The “TC 60 nM taggless TNF normalized” value in experiment [3] (60 nM untagged TNF) is 12.3%. Besides, in experiment [3], the “TC 150 nM- tagless TNF Normalized” value is recorded as 17.1% and the “TC 300 nM- tagless TNF Normalized” value came out at 19.2%.
`Cc1nc2cc(F)c(-c3cnc(N4CCN(C(=O)COCCn5cc(COCCOCCOCCOCCNC(=O)CC[C@H](NC(=O)c6ccc(SCCc7cc8c(=O)[nH]c(N)nc8[nH]7)cc6)C(=O)O)nn5)CC4)nc3)nc2c(N[C@H](C)c2cc(C#N)ccc2F)c1Cl` [Compound I-98, (S)-18-(4-((2-(2-amino-4-oxo-4,7-dihydro-3H-pyrrolo[2,3-d]pyrimidin-6-yl)ethyl)thio)benzamido)-1-(1-(2-(2-(4-(5-(7-chloro-8-(((R)-1-(5-cyano-2-fluorophenyl)ethyl)amino)-3-fluoro-6-methyl-1,5-naphthyridin-2-yl)pyrimidin-2-yl)piperazin-1-yl)-2-oxoethoxy)ethyl)-1H-1,2,3-triazol-4-yl)-15-oxo-2,5,8,11-tetraoxa-14-azanonadecan-19-oic acid]: on TNFα, the IC50 stood at 0.019 µM. The IC50 on folate receptor beta [1] is 0.133 µM. Further, at folate receptor beta [2], the Rmax was determined as 14.8 RU, the kd was 0.000774 s⁻¹, the Kd came out at 0.000172 µM and the kon was found to be 4.49e+06 M⁻¹ s⁻¹. In experiment [3], the “TC 150 nM- tagless TNF Normalized” value stood at 16.7% and the “TC 300 nM- tagless TNF Normalized” value is given as 19.4%.

The values are drawn from US20250127913A1, “BIFUNCTIONAL FOLATE RECEPTOR BINDING COMPOUNDS” (LYCIA THERAPEUTICS, INC., priority 2021, published 2025).
